Data reported in ChEMBL document CHEMBL1201862, “PubChem BioAssay data set” (2004).
Active and inactive are the calls of the source.

Tests used:
[1] = miR-122 activators in hepatoma reporter cells, dose response, cell-based, Huh7 psiCHECK-miR122, Renilla luciferase, cherry-picked (AID 651956); assay type: functional;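 note: huh7 hepatoma cells stably carrying a psiCHECK-2 miR-122 sensor plasmid; renilla luciferase signal reporting endogenous miR-122 activity after 48 h compound exposure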
[2] = HEK293T cytotoxicity, dose response, cytotoxicity control for miR-122 modulator project, cell-based, inhibitor set, cherry-pick, set 2 (AID 720697); assay type: functional
[3] = HEK293T cytotoxicity, dose response, cytotoxicity control for miR-122 modulator project, cell-based, activator set, cherry-pick (AID 720690); assay type: functional;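 note: HEK293T human cells scored for general mammalian cytotoxicity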
[4] = ARNT/TACC3 interaction disruptors, potency, confirmation, biochemical, AlphaScreen, cherry-picked samples (AID 651703); assay type: functional, Homo sapiens;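 note: His-tagged ARNT PAS-B domain paired with GST-TACC3 E629A dimer coactivator fragment; potency of inhibitors that break up the complex and lower AlphaScreen signal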
Caspase-6 = target: T1, Caspase-6 (Homo sapiens, UniProt P55212); assay: human caspase-6 inhibitors, dose response, biochemical, VEID-R110 fluorescence, cherry-pick (AID 720632)
T1 sequence (P55212 whole entry): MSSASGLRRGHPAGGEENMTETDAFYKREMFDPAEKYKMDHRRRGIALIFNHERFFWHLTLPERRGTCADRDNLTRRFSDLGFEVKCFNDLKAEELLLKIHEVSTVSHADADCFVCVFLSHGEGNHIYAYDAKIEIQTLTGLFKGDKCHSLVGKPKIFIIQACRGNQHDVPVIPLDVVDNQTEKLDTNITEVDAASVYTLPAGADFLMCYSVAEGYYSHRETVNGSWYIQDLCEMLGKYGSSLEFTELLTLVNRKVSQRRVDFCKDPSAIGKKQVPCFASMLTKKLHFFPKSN

Interleukin-8 = target: T2, Interleukin-8 (Homo sapiens, UniProt P10145); assay: Dose Response confirmation of uHTS small molecule hits for cystic fibrosis induced NFkb Inhibitors in a PAF-induced IL8 counterscreen.; assay type: functional; conditions: read-out: IC50_Mean
T2 sequence (P10145 whole entry): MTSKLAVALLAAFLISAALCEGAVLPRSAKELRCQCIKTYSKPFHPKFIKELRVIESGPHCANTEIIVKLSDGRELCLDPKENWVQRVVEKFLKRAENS

[5] = target: 26S proteasome non-ATPase regulatory subunit 14 (Homo sapiens, UniProt O00487); assay: inhibition of proteasome subunit RPN11 – biochemical, fluorescence polarization, uHTS hits, confirmation (AID 602368); assay type: functional
Chain of 26S proteasome non-ATPase regulatory subunit 14 (O00487 whole entry): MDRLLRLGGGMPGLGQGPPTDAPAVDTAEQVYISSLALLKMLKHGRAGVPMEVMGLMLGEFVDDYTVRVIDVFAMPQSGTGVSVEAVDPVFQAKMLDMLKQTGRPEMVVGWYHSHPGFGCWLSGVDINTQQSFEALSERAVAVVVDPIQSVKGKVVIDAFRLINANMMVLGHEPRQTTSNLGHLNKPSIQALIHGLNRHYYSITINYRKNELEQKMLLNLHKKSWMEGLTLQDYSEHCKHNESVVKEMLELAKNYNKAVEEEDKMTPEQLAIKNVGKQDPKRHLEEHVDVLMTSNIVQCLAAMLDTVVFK

[6] = target: 72 kDa type IV collagenase (Homo sapiens, UniProt P08253); assay: Dose Response validation of uHTS RPN11 inhibitor hits using a MMP-2 Fluorescence assay.; assay type: functional
Chain of 72 kDa type IV collagenase (P08253 whole entry): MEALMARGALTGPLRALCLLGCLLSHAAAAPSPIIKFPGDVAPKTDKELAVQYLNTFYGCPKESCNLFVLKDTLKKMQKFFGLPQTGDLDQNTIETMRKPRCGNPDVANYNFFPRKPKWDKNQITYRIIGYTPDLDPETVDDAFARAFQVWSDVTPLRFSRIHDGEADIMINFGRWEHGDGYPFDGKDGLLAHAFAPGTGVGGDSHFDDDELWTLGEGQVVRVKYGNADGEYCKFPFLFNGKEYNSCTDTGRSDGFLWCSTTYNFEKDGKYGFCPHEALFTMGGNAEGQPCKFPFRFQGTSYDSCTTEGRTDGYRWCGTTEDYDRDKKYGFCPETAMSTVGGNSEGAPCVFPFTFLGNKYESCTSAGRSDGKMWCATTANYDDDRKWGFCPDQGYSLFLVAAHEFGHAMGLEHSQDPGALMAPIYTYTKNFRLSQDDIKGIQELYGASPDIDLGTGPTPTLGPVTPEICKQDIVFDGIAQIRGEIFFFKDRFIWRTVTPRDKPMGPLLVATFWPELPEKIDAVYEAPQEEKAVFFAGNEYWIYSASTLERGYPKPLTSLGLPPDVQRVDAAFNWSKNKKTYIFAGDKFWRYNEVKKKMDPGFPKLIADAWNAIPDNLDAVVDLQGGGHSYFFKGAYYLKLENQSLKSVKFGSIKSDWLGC

Prothrombin = Prothrombin (Bos taurus, UniProt P00735); assay: thrombin inhibition, dose response, biochemical, fluorescence polarization, uHTS hits (AID 602369); assay type: functional
[7] = target: T3, Small ubiquitin-related modifier 1 (Homo sapiens, UniProt P63165); assay: inhibitors of SUMO1 peptide binding, dose response, biochemical, fluorescence polarization, uHTS hits (AID 624382); assay type: functional; conditions: read-out: IC50_Mean
T3 sequence (P63165 whole entry): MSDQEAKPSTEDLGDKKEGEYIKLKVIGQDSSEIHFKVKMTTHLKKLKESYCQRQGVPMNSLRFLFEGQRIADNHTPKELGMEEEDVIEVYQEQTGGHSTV

[8] = target: T4, Low molecular weight phosphotyrosine protein phosphatase (Homo sapiens, UniProt P24666); assay type: functional; conditions: read-out: IC50_Mean
T4 sequence (P24666 whole entry): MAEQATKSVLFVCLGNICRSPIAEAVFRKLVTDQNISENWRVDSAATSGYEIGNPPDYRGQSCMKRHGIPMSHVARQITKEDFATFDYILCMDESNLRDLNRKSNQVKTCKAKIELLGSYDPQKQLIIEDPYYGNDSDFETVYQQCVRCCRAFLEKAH

[9] = target: T3, Small ubiquitin-related modifier 1; assay: inhibitors of SUMO1 partner interactions, dose response, biochemical, FRET (AID 624383); assay type: functional; conditions: read-out: IC50_Mean
[10] = target: T4, Low molecular weight phosphotyrosine protein phosphatase; assay type: functional; conditions: read-out: IC50_Mean; remark: listed apart in the source
[11] = target: T5, Tyrosine-protein phosphatase non-receptor type 22 (Homo sapiens, UniProt Q9Y2R2); assay: LYP phosphatase inhibition for selectivity, dose response, selectivity assay for LMPTP inhibitor project, biochemical, fluorescence, LYP catalytic domain (AID 652006); assay type: functional; conditions: read-out: IC50_Mean
T5 sequence (Q9Y2R2 whole entry): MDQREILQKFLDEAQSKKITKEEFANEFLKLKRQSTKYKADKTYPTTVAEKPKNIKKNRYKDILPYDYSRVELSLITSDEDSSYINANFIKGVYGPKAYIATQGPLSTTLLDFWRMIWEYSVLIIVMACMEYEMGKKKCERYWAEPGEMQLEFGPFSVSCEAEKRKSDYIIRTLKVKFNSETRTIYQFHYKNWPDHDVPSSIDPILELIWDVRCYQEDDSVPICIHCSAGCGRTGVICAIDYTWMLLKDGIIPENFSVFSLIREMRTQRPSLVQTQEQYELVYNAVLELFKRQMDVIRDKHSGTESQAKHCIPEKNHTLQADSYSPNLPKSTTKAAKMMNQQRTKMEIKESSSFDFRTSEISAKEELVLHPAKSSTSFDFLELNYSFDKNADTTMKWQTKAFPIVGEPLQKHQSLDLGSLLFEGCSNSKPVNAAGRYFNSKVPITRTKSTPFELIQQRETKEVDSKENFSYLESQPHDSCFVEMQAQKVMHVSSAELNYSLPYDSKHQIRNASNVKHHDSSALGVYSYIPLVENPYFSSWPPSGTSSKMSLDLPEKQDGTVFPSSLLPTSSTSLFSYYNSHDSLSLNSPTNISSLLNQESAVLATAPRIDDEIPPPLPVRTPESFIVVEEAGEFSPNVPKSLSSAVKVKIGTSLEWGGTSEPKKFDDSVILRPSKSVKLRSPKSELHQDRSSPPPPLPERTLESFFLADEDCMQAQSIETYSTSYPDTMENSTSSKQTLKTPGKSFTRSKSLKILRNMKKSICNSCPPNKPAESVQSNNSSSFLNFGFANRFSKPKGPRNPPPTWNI

[12] = inhibitors of intracellular T. cruzi replication, confirmation, NIH3T3 host cells, beta-gal luminescence (AID 2044); assay type: functional, cell-based;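 note: intracellular parasites grown in NIH/3T3 mouse fibroblasts as host cells; luminescent beta-galactosidase reporter signal from transgenic T. cruzi replicating inside host cells; inhibitors lower the luminescence signal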
[13] = cytotoxicity toward NIH3T3 fibroblasts, dose response, counter-screen, cell-based, ATP luminescence, mouse fibroblasts (AID 2010); assay type: functional;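 note: cells exposed to compound for about 90 hours before reading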
[14] = target: ADP-ribosylation factor GTPase-activating protein 1 (Rattus norvegicus, UniProt Q62848); assay: Fluorescence polarization-based biochemical high throughput dose response screening assay to identify inhibitors of ADP-ribosylation factor GTPase activating protein 1 (ARFGAP1).; assay type: functional
Chain of ADP-ribosylation factor GTPase-activating protein 1 (Q62848 whole entry): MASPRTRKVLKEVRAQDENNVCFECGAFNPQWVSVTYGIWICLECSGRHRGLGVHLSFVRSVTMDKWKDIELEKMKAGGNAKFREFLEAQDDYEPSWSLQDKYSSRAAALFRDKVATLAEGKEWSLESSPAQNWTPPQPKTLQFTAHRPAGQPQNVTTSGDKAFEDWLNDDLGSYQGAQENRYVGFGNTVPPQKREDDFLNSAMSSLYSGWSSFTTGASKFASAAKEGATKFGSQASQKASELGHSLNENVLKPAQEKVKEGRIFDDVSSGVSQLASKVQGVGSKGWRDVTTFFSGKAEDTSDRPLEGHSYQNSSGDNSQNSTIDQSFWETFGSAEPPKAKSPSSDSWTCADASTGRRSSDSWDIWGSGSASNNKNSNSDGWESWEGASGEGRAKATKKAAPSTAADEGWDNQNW

Compound: NC(Cc1ccc(C(F)(F)F)cc1)c1csc(Nc2nncc3ccccc23)n1 (configuration not stated)
- AC50 [1]: 19.4 µM (active)
- AC50 [2]: 2.52 µM (active)
- AC50 [3]: 8.02 µM (active)

Compound: CC1CCN(C(=O)COC(=O)c2ccc([N+](=O)[O-])o2)CC1
- AC50 [4]: 122 µM (active)
- AC50 (Caspase-6): 18.3 µM (active)

Compound: COc1cncc(-c2cnc3sc(NCCc4ccccn4)nn23)c1
- IC50 (Interleukin-8): 9.33 µM (active)

Compound: C/C(=N\NC(=O)c1ccc(OC2OCCOC2Oc2ccc(C(=O)N/N=C(\C)c3ccncc3)cc2)cc1)c1ccncc1 (configuration not stated)
- IC50 [5]: 9.62 µM (active)
- IC50 [6]: > 100 µM (inactive)
- IC50 (Prothrombin): 41 µM (active)
- IC50 [7]: > 66.6 µM (inactive)
- IC50 [8]: > 80 µM (inactive)
- IC50 [9]: 8.52 µM (active)
- IC50 [10]: 13.2 µM (active)
- IC50 [11]: 13.6 µM (active)

Compound: N#CCCn1cc(/C=N/NC(N)=S)c(-c2ccc(-c3ccccc3)cc2)n1
- EC50 [12]: 0.924 µM (active)
- EC50 [13]: 9.69 µM (active)
- IC50 [14]: 128 µM (inactive)
